Assay [1] concerns NQO1 specific enzyme activity in BEAS-2B cells (marker for NRF2 activation). Description: Beas2B NQO1 MTT Assay. The format is cell-based. The following applies: Homo sapiens, NQO1 specific activity induction, 48 hours with compound. The source says:
NAD(P)H:quinone oxidoreductase 1 (NQO1), also called DT diaphorase, is a homodimeric FAD-containing enzyme that catalyses obligatory NAD(P)H-dependent two-electron reductions of quinones and protects cells against the toxic and neoplastic effects of free radicals and reactive oxygen species arising from one-electron reductions. The transcription of NQO1 is finely regulated by NRF2, and thus NQO1 activity is a good marker for NRF2 activation. On day one, frozen BEAS-2B cells (ATCC) were thawed in a water bath, counted, and re-suspended at a concentration of 250,000 cells/mL. Fifty microliters of cells were plated in 384 well black clear-bottomed plates. Plates were incubated at 37° C., 5% CO2 overnight. On day two, plates were centrifuged and 50 nL of compound or controls were added to the cells. Plates were then incubated at 37° C., 5% CO2 for 48 hours. On day four, medium was aspirated from the plate and crude cell lysates were made by adding 13 uL of 1× Cell Signaling Technologies lysis buffer with 1 Complete, Mini, EDTA-free Protease Inhibitor Tablet (Roche) for each 10 mL of lysis buffer. After lysis plates were incubated for 20 minutes at room temperature. Two microliters of lysate were removed for use in Cell Titer Glo assay (Promega) and MTT cocktail was prepared (Prochaska et. al. 1998) for measurement of NQO1 activity. Fifty microliters of MTT cocktail was added to each well, plate was centrifuged, and analysed on an Envision plate reader (Perkin Elmer) using Absorbance 570 nm label for 30 minutes. Product formation was measured kinetically and the pEC50 of NQO1 specific activity induction was calculated by plotting the change in absorbance (Delta OD/min) versus the log of compound concentration followed by 3-parameter fitting.
EC50s <1 nM (+++++), EC50s 10 nM-1 nM (++++), EC50s 10-100 nM (+++), EC50s 100 nM-1 μM (++), EC50s 1-10 μM (+), EC50s >10 μM (−), or were not determined (ND).

The target in assay [2] is T1, Keap1 (321-609) Kelch domain / TAMRA-labeled 16mer NRF2 peptide (ETGE motif) (Homo sapiens, UniProt Q14145).
T1 construct: the Kelch domain (321-609) of Keap1 is used
T1 sequence (Q14145 321-609): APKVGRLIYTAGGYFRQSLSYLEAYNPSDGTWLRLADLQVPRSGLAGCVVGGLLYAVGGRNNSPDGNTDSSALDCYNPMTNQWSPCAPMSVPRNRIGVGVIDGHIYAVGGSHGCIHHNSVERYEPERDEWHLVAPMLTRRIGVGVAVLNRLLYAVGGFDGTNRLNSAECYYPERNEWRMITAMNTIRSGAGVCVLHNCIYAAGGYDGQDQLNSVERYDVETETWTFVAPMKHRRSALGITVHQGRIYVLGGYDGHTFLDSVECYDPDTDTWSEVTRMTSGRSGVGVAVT
Put plainly: NRF2-Keap1 FP Assay. Format: binding. The settings on record: 20 nM Keap1 (321-609), 8 nM Tamra labeled peptide. The source says: One model for the NRF2-Keap1 interaction is through two binding sites in the Neh2 domain on NRF2. The two sites are referred to as the DLG binding motif (latch domain, uM affinity) and the ETGE binding motif (hinge domain, nM affinity). The Keap1 protein consists of an N-terminal region (NTR), a broad complex, tramtrack, and brick a'brac domain (BTB), an intervening region (IVR), a double glycine repeat domain (DGR or Kelch), and a C-terminal region. The DLG and ETGE motifs of NRF2's Neh2 domain bind to the Kelch domain of Keap1 at different affinities. In the Keap1 Kelch fluorescence polarization (FP) assay, a TAMRA-labeled 16mer peptide (AFFAQLQLDEETGEFL) containing the ETGE motif of NRF2 and the Kelch domain (321-609) of Keap1 is used. The assay determines if a compound interferes with the binding between Keap1 […] and the TAMRA-labeled peptide. Binding of TAMRA-labeled NRF2 peptide to Keap1 (321-609) results in a high FP signal. If a compound interferes with the binding between the peptide and the protein, it will cause the assay signal to decrease. Thus, assay signal is inversely proportional to binding inhibition.
100 nl of 100× compound dose response curves (serial 3-fold dilutions) in DMSO were stamped using an Echo liquid handling system (Labcyte) into 384-well low volume black assay plates (Greiner, #784076), with DMSO in columns 6 and 18. The top concentration of compound was located in columns 1 and 13. Keap1 (321-609) was diluted to 40 nM (2×) in 1× assay buffer (50 mM Tris, pH 8.0, 100 mM NaCl, 5 mM MgCl2, 1 mM DTT, 2 mM CHAPS, and 0.005% BSA) and 5 ul was added using a Multidrop Combi (Thermo Electron Corporation) equipped with a metal tip dispenser to all wells of the compound plate, except column 18. Column 18 received only 5 ul of assay buffer. Immediately, 5 uL of 16 nM (2×) of Tamra labeled peptide (AFFAQLQLDEETGEFL, 21st Century Biochemicals) was added to all wells of the plate. The plates were spun at 500 rpm for 1 min, incubated for 1 hr at room temperature, and read on an Analyst GT (Molecular Devices) equipped with excitation (530/25 nm) and emission (580/10 nm) filters designed for Tamra probes. A 561 nm dichroic mirror was also used in the Analyst. The final assay concentrations of Keap1 (321-609) and Tamra labeled peptide were 20 nM and 8 nM, respectively. Fluorescence measurements, represented as mP, were used in the transformation of the data. Compound activity was calculated based on percent inhibition, normalized against controls in the assay (Control 1 contains the Tamra peptide and Keap1 (321-609) together (0% response) and control 2 contains the Tamra peptide alone (100% response)). Data analysis was handled using the software package Abase XE (Surrey, United Kingdom. The % inhibition values were calculated by the equation:
100−(100*((compound response−average control 2)/(average control 1−average control2))). For calculation of pIC50s, Abase XE uses a four parameter equation.
IC50s<1 nM (+++++), IC50s 1 nM-10 nM (++++), IC50s 10-100 nM (+++), IC50s 100 nM-1 μM (++), IC50s 1-10 μM (+), IC50s >10 μM (−), or were not determined (ND).

As to `C[C@H]1Cc2ccc(C(F)(F)F)cc2S(=O)(=O)N(C2CCc3c2cccc3-n2ccc(C(=O)O)c2C2CC2)C1` (mixture of isomers) [Example 12, 2-Cyclopropyl-1-(1-((S)-4-methyl-1,1-dioxido-8-(trifluoromethyl)-4,5-dihydrobenzo[f][1,2]thiazepin-2(3H)-yl)-2,3-dihydro-1H-inden-4-yl)-1H-pyrrole-3-carboxylic acid], the figures for the EC50 in assay [1] and in assay [2] were 100 to 1000 nM and 1000 to 10000 nM, respectively.

For the molecule `C[C@H]1Cc2ccc(C(F)(F)F)cc2S(=O)(=O)N(Cc2cccc(-n3ccc(C(=O)O)c3[C@@H]3C[C@H]3c3cn(C)nn3)c2)C1` (racemic) [Example 1, 1-(3-(((S)-4-Methyl-1,1-dioxido-8-(trifluoromethyl)-4,5-dihydrobenzo[f]-[1,2]thiazepin-2(3H)-yl)methyl)phenyl)-2-(trans-2-(1-methyl-1H-1,2,3-triazol-4-yl)cyclopropyl)-1H-pyrrole-3-carboxylic acid], the EC50 in assay [1] and in assay [2] was 10 to 100 nM in each case.

For `C[C@H]1Cc2cc(C(F)(F)F)ccc2S(=O)(=O)N(Cc2cccc(-n3ccc(C(=O)O)c3[C@@H]3C[C@H]3c3cn(C)nn3)c2)C1` (racemic) [Example 2, 1-(3-(((S)-4-methyl-1,1-dioxido-7-(trifluoromethyl)-4,5-dihydrobenzo[f][1,2]thiazepin-2(3H)-yl)methyl)phenyl)-2-(trans-2-(1-methyl-1H-1,2,3-triazol-4-yl)cyclopropyl)-1H-pyrrole-3-carboxylic acid], the EC50 in assay [1] and in assay [2] was 10 to 100 nM throughout.

As to `Cc1c(CN2C[C@@H](C)Cc3ccc(C(F)(F)F)cc3S2(=O)=O)cccc1-n1ccc(C(=O)O)c1[C@@H]1C[C@H]1c1cn(C)nn1` (racemic) [Example 10, rac-2-(trans-2-(1-methyl-1H-1,2,3-triazol-4-yl)cyclopropyl)-1-(2-methyl-3-(((S)-4-methyl-1,1-dioxido-8-(trifluoromethyl)-4,5-dihydrobenzo[f][1,2]thiazepin-2(3H)-yl)methyl)phenyl)-1H-pyrrole-3-carboxylic acid], the EC50 in assay [1] and in assay [2] was 100 to 1000 nM each time.

With `Cc1ccc(CN2C[C@@H](C)Cc3ccc(C(F)(F)F)cc3S2(=O)=O)cc1-n1ccc(C(=O)O)c1[C@@H]1C[C@H]1c1cn(C)nn1` (racemic) [Example 11, rac-2-(trans-2-(1-methyl-1H-1,2,3-triazol-4-yl)cyclopropyl)-1-(2-methyl-5-(((S)-4-methyl-1,1-dioxido-8-(trifluoromethyl)-4,5-dihydrobenzo[f][1,2]thiazepin-2(3H)-yl)methyl)phenyl)-1H-pyrrole-3-carboxylic acid], the EC50 in assay [1] and in assay [2] was 100 to 1000 nM throughout.

For the molecule `C[C@H](Oc1cccc(-c2cccc(-n3ccc(C(=O)O)c3[C@@H]3C[C@H]3c3cn(C)nn3)c2)c1)C1CCCCC1` (racemic) [Example 13, 1-(3′-((S)-1-Cyclohexylethoxy)-[1,1′-biphenyl]-3-yl)-2-(trans-2-(1-methyl-1H-1,2,3-triazol-4-yl)cyclopropyl)-1H-pyrrole-3-carboxylic acid], the concentration for a half-maximal effect (EC50) in assay [1] and in assay [2] was 10 to 100 nM throughout.

Consider `CCC[C@@H]1CCCCN1C(=O)c1cccc(-c2cccc(-n3ccc(C(=O)O)c3[C@@H]3C[C@H]3c3cn(C)nn3)c2)c1` (racemic) [Example 14, 2-(trans-2-(1-methyl-1H-1,2,3-triazol-4-yl)cyclopropyl)-1-(3′-((R)-2-propylpiperidine-1-carbonyl)-[1,1′-biphenyl]-3-yl)-1H-pyrrole-3-carboxylic acid], for which the concentration giving a half-maximal response (EC50) in assay [1] and in assay [2] was 10 to 100 nM throughout.

Consider `CCC[C@@H]1CCCCN1C(=O)c1cccc(-c2cccc(-n3ccc(C(=O)O)c3[C@@H]3C[C@H]3c3cn(C)nn3)c2)c1F` (racemic) [Example 15, 1-(2′-fluoro-3′-((R)-2-propylpiperidine-1-carbonyl)-[1,1′-biphenyl]-3-yl)-2-(trans-2-(1-methyl-1H-1,2,3-triazol-4-yl)cyclopropyl)-1H-pyrrole-3-carboxylic acid], for which the EC50 in assay [1] fell in the range of 1 to 10 nM; in assay [2], 10 to 100 nM.

Turning to `Cn1cc([C@@H]2C[C@H]2c2c(C(=O)O)ccn2-c2cccc(CN3Cc4cc(F)ccc4OC(C)(C)C3)c2)nn1` (racemic) [Example 19], the results for the EC50 in assay [1] and in assay [2] were 100 to 1000 nM and 10 to 100 nM, respectively.

Turning to `Cn1cc([C@@H]2C[C@H]2c2c(C(=O)O)ccn2-c2cccc(CN3Cc4cc(Br)ccc4OC(C)(C)C3)c2)nn1` (racemic) [Example 20], the EC50 in assay [1] fell in the range of 100 to 1000 nM; in assay [2] it was 10 to 100 nM.

`Cn1cc([C@@H]2C[C@H]2c2c(C(=O)O)ccn2-c2cccc(CN3Cc4ccccc4CC(C)(C)C3)c2)nn1` (racemic) [Example 21]: the EC50 was in the range of 100 to 1000 nM in assay [1] and 10 to 100 nM in assay [2].

For the molecule `CCCC[C@H]1Cc2ccccc2S(=O)(=O)N(Cc2cccc(-n3ccc(C(=O)O)c3[C@@H]3C[C@H]3c3cn(C)nn3)c2)C1` [Example 3, 1-(3-(((S)-4-butyl-1,1-dioxido-4,5-dihydrobenzo[f][1,2]thiazepin-2(3H)-yl)methyl)phenyl)-2-((1R,2R)-2-(1-methyl-1H-1,2,3-triazol-4-yl)cyclopropyl)-1H-pyrrole-3-carboxylic acid], the EC50 in assay [1] and in assay [2] was 10 to 100 nM in each case.

Regarding `CCCC[C@H]1Cc2ccc(C(F)(F)F)cc2S(=O)(=O)N(Cc2cccc(-n3ccc(C(=O)O)c3[C@@H]3C[C@H]3c3cn(C)nn3)c2)C1` [Example 6, 1-(3-(((S)-4-butyl-1,1-dioxido-8-(trifluoromethyl)-4,5-dihydrobenzo[f][1,2]thiazepin-2(3H)-yl)methyl)phenyl)-2-((1R,2R)-2-(1-methyl-1H-1,2,3-triazol-4-yl)cyclopropyl)-1H-pyrrole-3-carboxylic acid], the EC50 in assay [1] was less than 1 nM; in assay [2], 10 to 100 nM.

On to `CC[C@H]1Cc2cc(C(F)(F)F)ccc2S(=O)(=O)N(Cc2cccc(-n3ccc(C(=O)O)c3[C@@H]3C[C@H]3c3cn(C)nn3)c2)C1` [Example 7, 1-(3-(((S)-4-ethyl-1,1-dioxido-7-(trifluoromethyl)-4,5-dihydrobenzo[f][1,2]thiazepin-2(3H)-yl)methyl)phenyl)-2-((1R,2R)-2-(1-methyl-1H-1,2,3-triazol-4-yl)cyclopropyl)-1H-pyrrole-3-carboxylic acid], for which the values for the EC50 in assay [1] and in assay [2] were 1 to 10 nM and 10 to 100 nM, respectively.

Source of the values: US20200031820A1, “3-CARBOXYLIC ACID PYRROLES AS NRF2 REGULATORS” (GLSXOSMITHKLINE INTELLECTUAL PROPERTY DEVELOPMENT LIMITED, priority 2016, published 2020).
